These are literature values, as cited in patent US11760974B2, “Personalized 3D neural culture system for generating human oligodendrocytes and studying myelination in vitro” (The Board of Trustees of the Leland Stanford Junior …, priority 2017, dated 2023).

As usually defined, the IC50 is the concentration that inhibits the measured activity by half. The term EC50 denotes the concentration that produces a half-maximal response.

In data set [1] the target is T1, Wnt processing and secretion (Porcn) (Homo sapiens, UniProt Q9H237).
T1 sequence (Q9H237 1-461): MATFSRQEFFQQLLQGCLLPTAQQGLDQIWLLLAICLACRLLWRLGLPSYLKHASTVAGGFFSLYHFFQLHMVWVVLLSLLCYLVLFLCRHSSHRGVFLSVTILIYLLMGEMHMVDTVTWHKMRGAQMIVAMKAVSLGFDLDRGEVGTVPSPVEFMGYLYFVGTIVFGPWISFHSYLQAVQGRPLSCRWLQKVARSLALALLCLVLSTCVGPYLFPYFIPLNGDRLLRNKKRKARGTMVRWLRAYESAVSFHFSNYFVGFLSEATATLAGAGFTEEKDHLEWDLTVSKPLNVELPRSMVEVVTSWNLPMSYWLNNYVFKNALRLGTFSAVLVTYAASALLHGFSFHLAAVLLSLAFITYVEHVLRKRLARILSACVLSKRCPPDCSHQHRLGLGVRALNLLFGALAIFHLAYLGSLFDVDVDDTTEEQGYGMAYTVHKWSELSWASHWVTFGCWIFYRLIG
The settings on record: cell-free assay.

In another data set the target is T2, TNKS2 (Homo sapiens, UniProt Q9H2K2).
T2 sequence (Q9H2K2 1-1166): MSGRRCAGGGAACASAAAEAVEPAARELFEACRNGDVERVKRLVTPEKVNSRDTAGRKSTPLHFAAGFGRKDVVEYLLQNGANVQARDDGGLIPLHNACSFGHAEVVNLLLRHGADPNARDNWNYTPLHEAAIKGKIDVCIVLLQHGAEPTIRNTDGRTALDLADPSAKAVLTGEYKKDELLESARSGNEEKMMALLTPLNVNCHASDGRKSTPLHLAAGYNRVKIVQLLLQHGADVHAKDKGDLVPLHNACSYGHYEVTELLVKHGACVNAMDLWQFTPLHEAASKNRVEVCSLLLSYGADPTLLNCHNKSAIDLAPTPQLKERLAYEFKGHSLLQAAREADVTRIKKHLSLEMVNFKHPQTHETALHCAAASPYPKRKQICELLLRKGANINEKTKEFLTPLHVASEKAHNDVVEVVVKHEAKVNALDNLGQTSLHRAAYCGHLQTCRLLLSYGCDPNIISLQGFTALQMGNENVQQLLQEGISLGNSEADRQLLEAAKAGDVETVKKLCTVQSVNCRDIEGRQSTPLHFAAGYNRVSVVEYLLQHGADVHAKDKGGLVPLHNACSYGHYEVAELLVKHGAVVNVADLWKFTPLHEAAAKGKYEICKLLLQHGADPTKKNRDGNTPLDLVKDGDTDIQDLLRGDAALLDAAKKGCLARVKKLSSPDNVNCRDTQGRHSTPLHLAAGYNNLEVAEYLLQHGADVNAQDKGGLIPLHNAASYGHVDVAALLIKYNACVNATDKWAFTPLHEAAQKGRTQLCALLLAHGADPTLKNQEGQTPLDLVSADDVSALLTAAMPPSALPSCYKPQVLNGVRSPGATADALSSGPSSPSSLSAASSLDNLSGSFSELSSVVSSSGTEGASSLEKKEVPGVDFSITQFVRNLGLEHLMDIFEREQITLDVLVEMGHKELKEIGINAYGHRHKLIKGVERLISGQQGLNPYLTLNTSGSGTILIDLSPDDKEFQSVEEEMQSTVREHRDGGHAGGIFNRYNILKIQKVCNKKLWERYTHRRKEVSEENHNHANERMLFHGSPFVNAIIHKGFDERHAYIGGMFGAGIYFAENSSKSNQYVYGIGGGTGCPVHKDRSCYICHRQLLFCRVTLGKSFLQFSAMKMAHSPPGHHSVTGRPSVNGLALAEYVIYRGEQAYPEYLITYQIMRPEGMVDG

The target of data set [2] is element-binding protein (CBP) (Homo sapiens, UniProt Q92793).
Chain of element-binding protein (CBP) (Q92793 whole entry): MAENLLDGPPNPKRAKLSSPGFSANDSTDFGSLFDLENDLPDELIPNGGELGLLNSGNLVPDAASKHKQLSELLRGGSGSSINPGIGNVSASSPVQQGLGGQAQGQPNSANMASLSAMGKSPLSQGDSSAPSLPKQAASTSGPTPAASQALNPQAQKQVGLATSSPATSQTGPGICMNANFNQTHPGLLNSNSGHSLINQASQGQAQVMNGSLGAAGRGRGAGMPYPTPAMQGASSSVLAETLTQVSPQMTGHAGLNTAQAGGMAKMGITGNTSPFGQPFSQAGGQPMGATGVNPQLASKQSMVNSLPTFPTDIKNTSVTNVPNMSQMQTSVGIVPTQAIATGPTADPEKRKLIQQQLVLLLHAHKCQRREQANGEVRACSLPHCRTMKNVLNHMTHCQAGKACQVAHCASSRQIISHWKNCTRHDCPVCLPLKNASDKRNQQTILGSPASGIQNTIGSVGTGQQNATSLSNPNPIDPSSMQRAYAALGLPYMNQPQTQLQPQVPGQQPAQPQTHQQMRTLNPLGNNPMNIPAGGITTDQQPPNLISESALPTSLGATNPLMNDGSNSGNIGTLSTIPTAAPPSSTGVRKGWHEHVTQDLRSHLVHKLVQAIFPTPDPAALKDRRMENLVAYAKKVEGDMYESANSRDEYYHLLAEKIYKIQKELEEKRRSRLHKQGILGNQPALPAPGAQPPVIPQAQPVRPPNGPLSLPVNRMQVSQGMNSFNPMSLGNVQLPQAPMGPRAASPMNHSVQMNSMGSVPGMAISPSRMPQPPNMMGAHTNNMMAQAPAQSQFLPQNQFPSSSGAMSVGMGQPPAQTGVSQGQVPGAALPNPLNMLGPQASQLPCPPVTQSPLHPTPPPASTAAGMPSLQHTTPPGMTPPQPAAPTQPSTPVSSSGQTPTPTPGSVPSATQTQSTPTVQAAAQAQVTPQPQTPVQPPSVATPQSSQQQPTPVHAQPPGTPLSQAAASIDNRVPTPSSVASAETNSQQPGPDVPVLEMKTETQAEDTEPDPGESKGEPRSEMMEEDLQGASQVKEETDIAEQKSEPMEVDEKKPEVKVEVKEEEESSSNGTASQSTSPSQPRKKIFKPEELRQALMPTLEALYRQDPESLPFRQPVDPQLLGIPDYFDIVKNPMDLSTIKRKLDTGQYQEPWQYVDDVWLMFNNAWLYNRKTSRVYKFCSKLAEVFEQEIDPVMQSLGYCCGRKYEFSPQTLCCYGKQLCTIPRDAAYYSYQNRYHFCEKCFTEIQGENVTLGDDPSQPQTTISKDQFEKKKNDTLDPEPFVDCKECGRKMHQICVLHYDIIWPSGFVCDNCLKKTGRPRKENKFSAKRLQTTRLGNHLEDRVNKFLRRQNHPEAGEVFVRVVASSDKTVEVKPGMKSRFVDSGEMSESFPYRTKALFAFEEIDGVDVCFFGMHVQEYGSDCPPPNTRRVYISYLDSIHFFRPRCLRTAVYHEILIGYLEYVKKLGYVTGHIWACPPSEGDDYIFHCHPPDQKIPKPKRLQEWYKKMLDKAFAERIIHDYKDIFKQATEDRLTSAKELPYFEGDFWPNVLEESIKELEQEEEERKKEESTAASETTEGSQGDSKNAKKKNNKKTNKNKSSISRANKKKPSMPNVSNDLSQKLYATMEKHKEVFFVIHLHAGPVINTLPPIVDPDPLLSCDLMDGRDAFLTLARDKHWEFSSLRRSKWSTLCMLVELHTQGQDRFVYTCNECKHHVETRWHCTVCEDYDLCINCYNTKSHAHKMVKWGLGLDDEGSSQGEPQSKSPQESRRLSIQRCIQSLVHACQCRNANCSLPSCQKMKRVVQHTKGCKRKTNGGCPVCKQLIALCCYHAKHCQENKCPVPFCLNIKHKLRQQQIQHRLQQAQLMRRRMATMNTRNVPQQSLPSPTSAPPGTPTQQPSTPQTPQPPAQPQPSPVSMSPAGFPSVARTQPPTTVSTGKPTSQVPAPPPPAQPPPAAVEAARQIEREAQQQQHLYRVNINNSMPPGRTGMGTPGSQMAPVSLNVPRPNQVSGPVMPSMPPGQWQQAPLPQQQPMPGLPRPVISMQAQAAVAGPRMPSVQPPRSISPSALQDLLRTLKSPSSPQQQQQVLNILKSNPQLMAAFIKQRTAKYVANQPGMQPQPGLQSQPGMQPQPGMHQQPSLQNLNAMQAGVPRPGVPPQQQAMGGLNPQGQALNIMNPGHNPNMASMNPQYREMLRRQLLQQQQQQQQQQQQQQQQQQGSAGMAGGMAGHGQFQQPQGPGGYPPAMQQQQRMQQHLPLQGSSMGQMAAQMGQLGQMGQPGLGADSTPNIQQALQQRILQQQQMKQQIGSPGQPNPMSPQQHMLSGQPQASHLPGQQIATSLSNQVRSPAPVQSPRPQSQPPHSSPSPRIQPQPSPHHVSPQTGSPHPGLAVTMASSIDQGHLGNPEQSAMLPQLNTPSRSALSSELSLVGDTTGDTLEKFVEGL
Data set [3] relates to Wnt pathway in L-cells expressing Wnt3A. The settings on record: read-out: IC50 Wnt pathway inhibition.
Another data set concerns the target T3, Porcn (Homo sapiens, UniProt Q9H237).
T3 sequence (Q9H237 1-461): T1 sequence (Q9H237 1-461)
Particulars: read-out: EC50 Porcn inhibitor.

The subject of data set [4] is Wnt signaling in TM3 cells (PORCN). The settings on record: read-out: IC50 Wnt signaling inhibition.
In data set [5] the test system is PORCN / Wnt3A-mediated TCF-luciferase activation in HEK293 cells. The settings on record: read-out: IC50 Wnt3A-mediated activation of TCF-binding site driving luciferase.

For `Cc1ccc2nc(NC(=O)CSc3nc4c(c(=O)n3-c3ccccc3)SCC4)sc2c1` [IWP-2], the IC50 in data set [1] is 27 nM.

As to `COc1ccc(-n2c(SCCCN3C(=O)c4cccc5cccc(c45)C3=O)nnc2-c2ccncc2)cc1` [WIKI4], the half-maximal inhibitory concentration (IC50) on TNKS2 was 15 nM.

Consider `O=C1[C@H](Cc2ccc(O)cc2)N2C(=O)CCN(C(=O)NCc3ccccc3)[C@H]2CN1Cc1cccc2ccccc12` [ICG-001], for which the IC50 in data set [2] is 3000 nM.

With `O=C(Nc1cccc2cccnc12)c1ccc(N2C(=O)[C@@H]3[C@H](C2=O)[C@@H]2C=C[C@H]3C2)cc1` [IWR-1-endo], the IC50 in data set [3] was 180 nM.

On to `O=C(CSc1nc2c(c(=O)n1-c1ccccc1)SCC2)Nc1ccc(-c2ccccc2)cn1` [IWP-L6], for which the EC50 on Porcn is 0.5 nM.

Turning to `Cc1cc(-c2ncc(CC(=O)Nc3ccc(-c4cnccn4)cn3)cc2C)ccn1` [LGK-974], the IC50 in data set [4] was 0.4 nM.

`Cc1cc(-c2ccc(CC(=O)Nc3ccc(-c4cccnc4)cc3)cc2)ccn1` [Wnt-C59]: the IC50 in data set [5] is 0.074 nM.
